# Reference: patent US20160280651A1, “COMPOUNDS THAT INDUCE ABA RESPONSES” (THE REGENTS OF THE UNIVERSITY OF CALIFORNIA, priority 2013, published 2016)
# System: Arabidopsis seeds
# Test: Arabidopsis germination inhibition analysis, Example 12
# Assay type: in vivo
# Details: 0.2 uM; assessed after 3 days, dark
# Experimental: To analyse the effect of compounds on inhibition of germination, Arabidopsis seeds after-ripened for about 4 weeks were surface-sterilized with a solution containing 5% NaClO and 0.05% Tween-20 for 10 minutes, and rinsed with water four times. Sterilized seeds were suspended with 0.1% agar and sowed on 0.8% solidified agar medium containing ½ Murashige and Skoog (MS) salts (Sigma-Aldrich) in the presence of the relevant treatment, stored at 4° C. for 4 days, and then transferred to 22° C. under the dark conditions. Germination was assessed after 3 days.
row,Compound,Percentage germination of Arabidopsis seeds
1,C=CCN1C(=O)CCc2cc(NS(=O)(=O)Cc3ccc(Cl)cc3)cc(C)c21,100%
2,C#CCN1C(=O)CCc2cc(NS(=O)(=O)Cc3ccc(Br)cc3)cc(C)c21,100%
3,C#CCN1C(=O)CCc2cc(NS(=O)(=O)Cc3ccc(OC(F)(F)F)cc3)cc(C)c21,100%
4,C=CCN1C(=O)C(C)Cc2cc(NS(=O)(=O)Cc3ccc(C)cc3)ccc21 (centres unmarked),99%
5,C=CCN1C(=O)CCc2cc(NS(=O)(=O)Cc3ccc(C)cc3)cc(C)c21,100%

# Same assay, conditions: 1 uM; assessed after 3 days, dark
row,Compound,Percentage germination of Arabidopsis seeds
1,C=CCN1C(=O)CCc2cc(NS(=O)(=O)Cc3ccc(Cl)cc3)cc(C)c21,100%
2,C#CCN1C(=O)CCc2cc(NS(=O)(=O)Cc3ccc(Br)cc3)cc(C)c21,100%
3,C#CCN1C(=O)CCc2cc(NS(=O)(=O)Cc3ccc(OC(F)(F)F)cc3)cc(C)c21,100%
4,C=CCN1C(=O)C(C)Cc2cc(NS(=O)(=O)Cc3ccc(C)cc3)ccc21 (centres unmarked),100%
5,C=CCN1C(=O)CCc2cc(NS(=O)(=O)Cc3ccc(C)cc3)cc(C)c21,100%

# Same assay, conditions: 5 uM; assessed after 3 days, dark
row,Compound,Percentage germination of Arabidopsis seeds
1,C=CCN1C(=O)CCc2cc(NS(=O)(=O)Cc3ccc(Cl)cc3)cc(C)c21,100%
2,C#CCN1C(=O)CCc2cc(NS(=O)(=O)Cc3ccc(Br)cc3)cc(C)c21,100%
3,C#CCN1C(=O)CCc2cc(NS(=O)(=O)Cc3ccc(OC(F)(F)F)cc3)cc(C)c21,68%
4,C=CCN1C(=O)C(C)Cc2cc(NS(=O)(=O)Cc3ccc(C)cc3)ccc21 (centres unmarked),100%
5,C=CCN1C(=O)CCc2cc(NS(=O)(=O)Cc3ccc(C)cc3)cc(C)c21,100%

# Same assay, conditions: 25 uM; assessed after 3 days, dark
row,Compound,Percentage germination of Arabidopsis seeds
1,C=CCN1C(=O)CCc2cc(NS(=O)(=O)Cc3ccc(Cl)cc3)cc(C)c21,0%
2,C#CCN1C(=O)CCc2cc(NS(=O)(=O)Cc3ccc(Br)cc3)cc(C)c21,0%
3,C#CCN1C(=O)CCc2cc(NS(=O)(=O)Cc3ccc(OC(F)(F)F)cc3)cc(C)c21,0%
4,C=CCN1C(=O)C(C)Cc2cc(NS(=O)(=O)Cc3ccc(C)cc3)ccc21 (centres unmarked),71%
5,C=CCN1C(=O)CCc2cc(NS(=O)(=O)Cc3ccc(C)cc3)cc(C)c21,0%

# System: HAB1 with PYR/PYL receptors
# Test: Receptor-mediated PP2C inhibition assay with HAB1, Example 1
# Assay type: biochemical, Arabidopsis
# Details: 10 μM; in the presence of all ABA receptors tested
# Experimental: (§1) FIG. 2A-FIG. 2C. Novel ABA agonists inhibit PPC2 activity through multiple PYR/PYL. (A) Chemical structure of naturally occurring (+)-ABA and selected ABA agonists. (B) and (C) HAB1, ABU, and ABI2 PP2C enzyme activity based ABA-agonist assays for various receptors in the presence or absence of 10 μM each test chemical.
# FIG. 3A-FIG. 3B. (A) Receptor-mediated dose-dependent inhibition of PP2C enzyme activity by ABA agonists and analogs. (B) Observed compound IC50 values in enzymatic HAB1 PP2C-based ABA-agonist assays.
# FIG. 4A-FIG. 4B. Quinabactin activates multiple ABA receptors. (A) Chemical structures of ABA, pyrabactin and quinabactin. (B) Chemical-dependent inhibition of HAB1 by ABA receptors. IC50 values (nM) were determined as described in the methods using 50 nM HAB1, 50 nM and multiple concentrations of compounds; full dose response curves are provided as in FIG. 3. (nd) correspond to receptors that were not produced as active proteins. The phylogenetic tree is a Neighbor-Joining tree made using the JTT distance matrix in MEGA5 (Tamura K, et al. (2011) MEGA5: Molecular Evolutionary Genetics Analysis Using Maximum Likelihood, Evolutionary Distance, and Maximum Parsimony Methods. Molecular Biology and Evolution 28(10):2731-2739).
# HAB1 and PYL proteins were expressed and purified as described previously (Park S Y, et al. (2009) Abscisic Acid Inhibits Type 2C Protein Phosphatases via the PYR/PYL Family of START Proteins. Science 324(5930):1068-1071), with minor modifications. To obtain GST-HAB1, -ABI1 and -ABI2 fusion proteins, the HAB1 cDNA was cloned into pGex-2T whereas ABI1 and ABI2 cDNAs were cloned into the vector pGex-4T-1. Expression was conducted in BL21[DE3]pLysS host cells. Transformed cells were pre-cultured overnight, transferred to LB medium and cultured at 30° C. to culture A600 of ˜0.5. The culture was then cooled on ice and MnCl2 added to 4 mM and IPTG added to 0.3 mM. After 16 hours incubation at 15° C., cells were harvested and recombinant proteins were purified on glutathione agarose as described previously (Park S Y, et al. (2009). To obtain 6×His-PYL receptor fusion proteins, receptor cDNAs for all 13 ABA receptors were cloned into the vector pET28 and expressed and purified as described previously (Mosquna A, et al. (2011) Potent and selective activation of abscisic acid receptors in vivo by mutational stabilization of their agonist-bound conformation. PNAS 108(51):20838-20843); this yielded soluble and functional protein (assessed using receptor-mediated PP2C inhibition assays) for all receptors except PYL7, PYL11 and PYL12. These three receptors were therefore alternatively expressed as maltose binding (MBP) fusion proteins using the vector pMAL-c; expression of these constructs was carried out in BL21 [DE3]pLysS host strain with the same induction conditions used for GST-HAB1. Recombinant MBP-PYL fusion proteins were purified from sonicated and cleared lysate using amylose resin (New England Biolab, Inc.) using the manufacturers purification instructions. This effort yielded an active MBP-PYL11 fusion protein, but failed for PYL7 and PYL12.
# PP2C activity assays using recombinant receptors and PP2Cs were carried out as follows: Purified proteins were pre-incubated in 80 μl assay buffer containing 10 mM MnCl2, 3 μg bovine serum albumin and 0.1% 2-mercaptoethanol with ABA or ABA agonist for 30 minutes at 22° C. Reactions were started by adding 20 μL of a reaction solution containing 156 mM Tris-OAc, pH 7.9, 330 mM KOAc and 5 mM 4-methylumbelliferyl phosphate after which fluorescence measurements were immediately collected using an excitation filter 355 nm and an emission filter 460 nm on a Wallac plate reader. Reactions contained 50 nM PP2C and 100 nM PYR/PYL proteins, respectively.
row,Compound,Inhibition of PP2C enzyme activity of HAB1
1,"CC1=CC(=O)CC(C)(C)C1(O)/C=C/C(C)=C\C(=O)O (single isomer, unassigned; (+)) [(+)-ABA, Abscisic acid, reference compound]",> 90%

# System: ABI1 with PYR/PYL receptors
# Test: Receptor-mediated PP2C inhibition assay with ABI1, Example 1
# Assay type: biochemical, Arabidopsis
# Details: 10 μM; in the presence of all ABA receptors tested
# Experimental: as §1
# (§2) HAB1 and PYL proteins were expressed and purified as described previously (Park S Y, et al. (2009) Abscisic Acid Inhibits Type 2C Protein Phosphatases via the PYR/PYL Family of START Proteins. Science 324(5930):1068-1071), with minor modifications. To obtain GST-HAB1, -ABI1 and -ABI2 fusion proteins, the HAB1 cDNA was cloned into pGex-2T whereas ABI1 and ABI2 cDNAs were cloned into the vector pGex-4T-1. […] After 16 hours incubation at 15° C., cells were harvested and recombinant proteins were purified on glutathione agarose as described previously (Park S Y, et al. (2009). To obtain 6×His-PYL receptor fusion proteins, receptor cDNAs for all 13 ABA receptors were cloned into the vector pET28 and expressed and purified as described previously (Mosquna A, et al. (2011) Potent and selective activation of abscisic acid receptors in vivo by mutational stabilization of their agonist-bound conformation. PNAS 108(51):20838-20843); this yielded soluble and functional protein (assessed using receptor-mediated PP2C inhibition assays) for all receptors except PYL7, PYL11 and PYL12. […]
row,Compound,Inhibition of PP2C enzyme activity of ABI1
1,"CC1=CC(=O)CC(C)(C)C1(O)/C=C/C(C)=C\C(=O)O (single isomer, unassigned; (+)) [(+)-ABA, Abscisic acid, reference compound]",> 90%

# System: ABI2 with PYR/PYL receptors
# Test: Receptor-mediated PP2C inhibition assay with ABI2, Example 1
# Assay type: biochemical, Arabidopsis
# Details: 10 μM; in the presence of all ABA receptors tested
# Experimental: as §1, §2
row,Compound,Inhibition of PP2C enzyme activity of ABI2
1,"CC1=CC(=O)CC(C)(C)C1(O)/C=C/C(C)=C\C(=O)O (single isomer, unassigned; (+)) [(+)-ABA, Abscisic acid, reference compound]",> 90%

# System: ABA-responsive genes
# Test: Quantitative RT-PCR of ABA-responsive genes in Arabidopsis
# Assay type: in vivo
# Details: Col and Ler ecotypes and pyr1, pyl1, pyl2, pyl3, pyl4 single mutants
# Experimental: FIG. 9A-FIG. 9D. LC66C6 induces numerous ABA-responsive genes. […] Ten-day old seedlings were treated with carrier solvent (DMSO) or either 25 μM ABA, pyrabactin or LC66C6 for 8 hours. Total RNA was then prepared labeled and hybridized to ATH1 microarrays. Data plotted are log 2 transformed average expression values for ˜13K probes that were detectable across all experiments. Data shown are averages determined from triplicate biological replicates. (C) and (D) show the expression of a reporter gene in different plant tissues after treatment with vehicle (DMSO), pyrabactin, LC66C6, or (+)-ABA.
# FIG. 10. ABA-responsive gene expression in PYR/PYL single mutants. The response of the ABA-responsive MAPKKK18, RD29A, and RD29B mRNAs to LC66C6, ABA and pyrabactin were characterized in the Col and Ler ecotypes and the pyr1, pyl1, ply2, pyl3 and pyl4 single mutant genotypes.
# FIG. 11. LC66C6 induces ABA-responsive gene expression in wild-type plants, abi1-1 and PYR/PYL quadruple mutants.
# Total RNA was isolated using Plant RNA purification reagent (Invitrogen, USA) according to the manufacturer's instructions. cDNA was synthesized from 1 μg of total RNA using the QantiTec reverse transcription kit (Qiagen, USA). Real-time PCR using Maxima® SYBR Green/Fluorescein qPCR Master Mix (Fermentas) was performed with the iQ5 real-time PCR detection system (Bio-Rad, Hercules, Calif.). The relative amounts of target mRNAs were determined using the relative standard curve method and were normalized by relative amount of internal control mRNA. Biological triplicate experiments were performed.
row,Compound,"Induction of MAPKKK18, RD29A and RD29B mRNAs"
1,"CC1=CC(=O)CC(C)(C)C1(O)/C=C/C(C)=C\C(=O)O (single isomer, unassigned; (+)) [(+)-ABA, Abscisic acid, reference compound]",induced

# Same assay, conditions: Col wild-type plants
row,Compound,"Expression of ABF3, GBF3, NCED3 and RD29A"
1,"CC1=CC(=O)CC(C)(C)C1(O)/C=C/C(C)=C\C(=O)O (single isomer, unassigned; (+)) [(+)-ABA, Abscisic acid, reference compound]","induced expression of ABF3, GBF3, NCED3, and RD29A in a dose dependent manner"

# System: Chlamydomonas
# Test: Colony growth of Chlamydomonas with and without salinity and osmotic stress
# Assay type: in vivo
# Details: not given
# Experimental: FIG. 17A-FIG. 17D. The effect of ABA and its agonists in Physcomitrella patens and Chlamydomonas. Protonemal growth images (A) and quantitative analysis (B) of the effects of ABA and agonists on Phsycomitrella patens. Protonema were grown on 200 μM of specific test chemical for 10 days. […] Pyrabactin bleached protonema. (C) The expression of ABA-responsive genes of Physcomitrella patens. Protonema were treated with 200 μM chemical solutions for 3 h. (D) Colony growth of Chlamydomonas on the chemical with salinity stress and osmotic stress. There was no effect of ABA and LC66C6 on the Chlamydomonas growth with and without stresses.
row,Compound,Growth of Chlamydomonas
1,"CC1=CC(=O)CC(C)(C)C1(O)/C=C/C(C)=C\C(=O)O (single isomer, unassigned; (+)) [(+)-ABA, Abscisic acid, reference compound]",no effect
